{"source": "patent US20250154207A1", "about": "“PEPTIDES FOR DISSOLVING PROTEIN AGGREGATES AND METHODS THEREOF” (REJUKON BIOPHARM INC., priority 2022, published 2025)", "key": {"[1]": {"tested_on": "protein aggregates in eukaryotic cells", "assay": "depolymerization function in eukaryotic cells", "assay_type": "cell-based", "settings": "FIGS. 7-16", "source_text": "The inventors then selected three peptides PLPR3 (SEQ ID NO: 6), ATXN8OS (SEQ ID NO: 7), and GRWD1 (SEQ ID NO: 8) to verify the depolymerization function in eukaryotic cells with the experimental scheme shown in FIG. 6."}, "[2]": {"settings": "previously identified, PCT/CN2021/111683; cited from earlier work"}, "G3BP1 aggregates": {"molecular_target": "G3BP1 aggregates (Homo sapiens, UniProt Q13283)", "sequence (Q13283 whole entry)": "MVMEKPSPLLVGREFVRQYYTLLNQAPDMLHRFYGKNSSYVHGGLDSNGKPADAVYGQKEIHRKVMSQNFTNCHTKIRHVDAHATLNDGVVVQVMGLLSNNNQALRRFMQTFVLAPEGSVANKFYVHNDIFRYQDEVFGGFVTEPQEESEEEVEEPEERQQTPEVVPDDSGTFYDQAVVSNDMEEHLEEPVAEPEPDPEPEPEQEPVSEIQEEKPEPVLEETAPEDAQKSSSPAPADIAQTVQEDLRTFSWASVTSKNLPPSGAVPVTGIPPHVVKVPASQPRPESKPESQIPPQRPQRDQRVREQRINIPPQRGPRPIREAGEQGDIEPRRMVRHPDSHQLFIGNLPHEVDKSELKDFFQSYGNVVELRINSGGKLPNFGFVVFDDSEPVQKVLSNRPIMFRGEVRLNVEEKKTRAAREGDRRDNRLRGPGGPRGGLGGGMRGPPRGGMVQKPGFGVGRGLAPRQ", "assay": "in vitro dissolving of protein aggregates by purified peptides", "assay_type": "biochemical", "method": "Given that the charged amino acid residues have the highest percentage in Champ-E, the inventors first tested the function of the charged amino acid residues in dissolving protein aggregates. The inventors generated a series variant of Champ-E with mutation of aspartic acid residues and tested their capability of dissolving protein aggregates in vitro and in cells. The variant peptides were expressed in E. coli and then purified (see FIG. 3). The purified variant peptides were then added to in vitro protein solution that is capable of forming protein aggregates."}}, "note": "Entries after “also recorded” stand apart in the source; their conditions may differ."}
{"substance": "ATXN8OS: SEQ ID NO: 7, PCPGAPCCSLVATGSRVPFSGLKEEEEEDGEDDEEEEEEG; fragment of human protein", "values": [{"measurement": "depolymerization effect in eukaryotic cells", "setting": "[1]", "value": "have depolymerization effect"}]}
{"substance": "C19L2: SEQ ID NO: 10, LPDVNERIEQFSQEHSVKKKKKKDKHSKKAKKEKKKKSKK; few or no P/G", "values": [{"measurement": "depolymerization effect in eukaryotic cells", "setting": "[1]", "value": "have depolymerization effect"}]}
{"substance": "CACNA1F: SEQ ID NO: 12, DMEEEEEEEEEEEEEEEEEGAGGVELLQEVVPKEKVVPIP; few or no polar residues", "values": [{"measurement": "depolymerization effect in eukaryotic cells", "setting": "[1]", "value": "almost no depolymerization effect"}]}
{"substance": "CHD3(E2K): SEQ ID NO: 14, RKKKKKKTKRRKKGKGDGGQKQVKQKSSATLLLTWGLKDV; CHD3 with E mutated to K", "values": [{"measurement": "depolymerization effect in eukaryotic cells", "setting": "[1]", "value": "still has certain depolymerization effect"}]}
{"substance": "CHD3: SEQ ID NO: 13, REKKEKKTKRRKKGEGDGGQKQVEQKSSATLLLTWGLEDV; mixture of positively and negatively charged residues", "values": [{"measurement": "depolymerization effect in eukaryotic cells", "setting": "[1]", "value": "some depolymerization effect"}]}
{"substance": "Champ-E: SEQ ID NO: 1, MTEPQEESEEEVEEPEERQQTPEVVPDDSGTFYDQTVSNDLE; charged amphipathic peptide", "values": [{"measurement": "capable of dissolving protein aggregation", "setting": "[2]", "value": "capable of dissolving protein aggregation"}]}
{"substance": "GRWD1: SEQ ID NO: 8, SNRLMMLRMHNLHGTKPPPSEGSDEEEEEEDEEDEEERKP; fragment of human protein", "values": [{"measurement": "depolymerization effect in eukaryotic cells", "setting": "[1]", "value": "have depolymerization effect"}]}
{"substance": "PELP1: SEQ ID NO: 15, GGPPALEEDLTVININSSDEEEEEEEEEEEEEEEEEEEEE", "values": [{"measurement": "dissolving G3BP1 protein aggregates", "setting": "G3BP1 aggregates; in vitro, FIG. 17", "value": "capable of dissolving G3BP1 protein aggregates"}]}
{"substance": "PLPR3: SEQ ID NO: 6, PMAEEEEEEEDEEEEEEEEEEEDEGPAPPSLYPTVQARPG; fragment of human protein", "values": [{"measurement": "depolymerization effect in eukaryotic cells", "setting": "[1]", "value": "have depolymerization effect"}]}
{"substance": "ZNF326: SEQ ID NO: 11, DEPIEEEEDEDEEEEAEEVGEVEEVEEVEEVREGGIEGEG; few or no polar residues", "values": [{"measurement": "depolymerization effect in eukaryotic cells", "setting": "[1]", "value": "almost no depolymerization effect"}]}
{"substance": "“Champ”-Q: SEQ ID NO: 5, TQPQQQSQQQVQQPQQRQQTPQVVPDDSGTFYDQTVSNDLQ; uncharged variant of Champ-E", "values": [{"measurement": "capability of dissolving protein aggregates in vitro", "setting": "G3BP1 aggregates; purified peptide added to in vitro protein solution capable of forming protein aggregates, FIG. 4", "value": "could no longer dissolve protein aggregates; also recorded: no obvious depolymerization effect"}]}
